# Patent publication US7368567B2, “Arylsulfonyl benzodioxanes, benzoxazines and benzothiazines as 5-HT6 antagonists” (Roche Palo Alto LLC, priority 2004, dated 2008)
# Columns and labels:
# [1] = biological target: T1, recombinant human 5-HT2A receptor (Homo sapiens, UniProt P28223); assay: Radioligand binding, [3H]Ketanserin competition in CHO-K1 cell membranes; conditions: [3H]Ketanserin displacement, 32° C., pH 7.4, read-out: pKi for the 5-HT2A receptor (converted)
# T1 construct: expressed in transfected cells
# Method: The binding activity of compounds of this invention in vitro was determined as follows. Duplicate determinations of 5-HT6 ligand affinity were made by competing for binding of [^3H]LSD in cell membranes derived from HEK293 cells stably expressing recombinant human 5-HT6 receptor. Duplicate determinations of 5-HT2A ligand affinity were made by competing for binding of [^3H]Ketanserin (3-(2-(4-(4-fluorobenzoyl)piperidinol)ethyl)-2,4(1H,3H)-quinazolinedione) in cell membranes derived from CHO—K1 cells stably expressing recombinant human 5-HT2A receptor. Membranes were prepared from HEK 293 cell lines by the method described by Monsma et al., Molecular Pharmacology, Vol. 43 pp. 320-327 (1993), and from CHO—K1 cell lines as described by Bonhaus et al., Br J Pharmacol. June;1 15(4):622-8 (1995).
# For estimation of affinity at the 5-HT6 receptor, all determinations were made in assay buffer containing 50 mM Tris-HCl, 10 mM MgSO4, 0.5 mM EDTA, 1 mM ascorbic acid, pH 7.4 at 37° C., in a 250 microliter reaction volume. […]
# Assay tubes containing [^3H] […] LSD or [^3H]Ketanserin were determined as radioactive counts per minute using Packard TopCount.
# Displacement of [^3H]LSD or [^3H]Ketanserin from the binding sites was quantified by fitting concentration-binding data to a 4-parameter logistic equation: […]
# T1 sequence (P28223 whole entry): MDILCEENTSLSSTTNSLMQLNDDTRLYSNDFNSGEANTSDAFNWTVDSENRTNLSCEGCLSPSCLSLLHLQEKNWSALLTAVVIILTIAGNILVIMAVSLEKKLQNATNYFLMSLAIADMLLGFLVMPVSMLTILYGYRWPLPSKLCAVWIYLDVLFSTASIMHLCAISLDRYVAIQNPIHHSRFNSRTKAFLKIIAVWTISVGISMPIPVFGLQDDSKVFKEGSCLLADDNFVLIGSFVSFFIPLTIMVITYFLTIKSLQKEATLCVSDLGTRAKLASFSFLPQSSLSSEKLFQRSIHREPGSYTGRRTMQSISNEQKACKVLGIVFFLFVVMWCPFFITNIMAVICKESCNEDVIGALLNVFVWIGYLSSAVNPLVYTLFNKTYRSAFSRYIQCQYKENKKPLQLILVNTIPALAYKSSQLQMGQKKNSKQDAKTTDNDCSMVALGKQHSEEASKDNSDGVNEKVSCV
smiles,measurement,setting,value
"CNC[C@H]1COc2ccc(S(=O)(=O)c3cccc(F)c3)cc2O1 [[7-(3-Fluoro-benzenesulfonyl)-2,3-dihydro-benzo[1,4]dioxin-2-(S)-ylmethyl]-methyl-amine]",Ki,[1],~0.0182 µM
same,melting point,,245.8 to 246.4 °C
